In one data set the target is T1, PI3Kalpha (Homo sapiens, UniProt P42336).
T1 construct: in some cases as full-length kinases, in some cases as truncated fragments; purchased Upstate 14-602
The data set can be described thus: Cell-free kinase assay (ALPHA technology), PI3K-ALPHA. The format is biochemical. The conditions noted are these: 100 μM ATP, recombinant human kinase. The procedure: (§1) The inhibitory effect of the inventive compounds was tested on various human serine/threonine kinases, tyrosine kinases and lipid kinases in enzymatic assays. Recombinant human kinases, for example Erk2, PI3Kalpha, -beta, -gamma, -delta, p38alpha, p38gamma, Jnk1, Jnk2 and others were used, in some cases as full-length kinases, in some cases as truncated fragments—but at least consisting of the functional kinase domains. The commercial kinase proteins (Proqinase, Upstate) were used as recombinant fusion proteins with GST (glutathione S-transferase) tag or His tag. Depending on the substrate type, the different kinase reactions were quantified by means of suitable ALPHA™ beads (PerkinElmer).
(§2) The substrate testing on the Erk assay is described in detail below. Selected test results of the Erk2, PI3Kalpha assays are cited below. […] The kinase reaction was then stopped by adding 10 μl of the ALPHA bead mix (10 μg/ml, #6760617/PerkinElmer), pre-incubated with anti-phospho MBP antibody (320 μM, #05-429/Upstate), in 25 mM Tris, 200 mM NaCl, 100 mM EDTA and 0.3% BSA, and left to stand overnight. • b) PI3K-ALPHAs (e.g. PI3Kalpha): The test substance, 1 ng of PI3Kalpha (#14-602, Upstate), 100 μM ATP and 20 μM PIP2 substrate (#P4508, Echelon) on a 384-well Optiplate (Perkin Elmer) for 1 h in 50 mM Hepes, 50 mM NaCl, 5 mM MgCl2, 0.05% Chaps, 5 mM DTT at pH 7.4. Subsequently, the kinase reaction was stopped by adding the ALPHA bead mix (10 μg/ml, #6760603/PerkinElmer), preincubated with 1 nM GST:Grp1 fusion protein (Upstate) and 15 nM biotinylated PIP3 (#C-39B6/Echelon) in 50 mM Hepes, 50 mM NaCl, 50 mM EDTA and 0.1% BSA, and left to stand overnight.
(§3) The fluorescence was detected the next morning in a Fusion™ alpha instrument (Perkin Elmer).
(§4) The calculation of % inhibition values per substance concentration was done by means of the following formula from the raw data determined in the Fusion™ alpha:
(§5) The controls were each determined 8 times, the substance samples each twice. 0% control contained neither any ATP nor any substrate; the 100% control contained no test substance. The IC50 values were determined with GraphPadPrism.

The next data set has as its target T2, Erk2.
T2 construct: in some cases as full-length kinases, in some cases as truncated fragments; purchased Upstate 14-173
The experiment in a line: Cell-free kinase assay (ALPHA technology), Erk2-ALPHA. In kind it is biochemical. The conditions noted are these: 10 μM ATP, recombinant human kinase. The protocol:
as §1, §2, §3, §4, §5

The subject of the next data set is Jnk1 + Jnk2. The experiment in a line: Cell-free kinase assay (ALPHA technology), Jnk1 + Jnk2. In kind it is biochemical. The conditions noted are these: at 10 μM or 100 μM* ATP, recombinant human kinases. The protocol: as §1, with “(PerkinElmer). […]” for “(PerkinElmer).”
as §3, §4, §5

The target in the next data set is T3, p38alpha (Homo sapiens, UniProt Q16539).
T3 construct: in some cases as full-length kinases, in some cases as truncated fragments
T3 sequence (Q16539 whole entry, the tested form may be a part): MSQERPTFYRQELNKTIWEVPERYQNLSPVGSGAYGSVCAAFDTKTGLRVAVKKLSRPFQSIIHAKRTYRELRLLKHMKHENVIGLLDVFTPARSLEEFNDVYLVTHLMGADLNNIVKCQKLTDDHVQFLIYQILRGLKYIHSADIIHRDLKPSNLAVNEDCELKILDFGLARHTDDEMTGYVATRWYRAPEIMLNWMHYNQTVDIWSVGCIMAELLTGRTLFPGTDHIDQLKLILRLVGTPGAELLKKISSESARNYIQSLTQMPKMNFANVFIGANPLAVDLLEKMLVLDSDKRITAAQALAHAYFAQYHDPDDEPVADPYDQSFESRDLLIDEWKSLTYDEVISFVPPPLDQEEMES
The experiment in a line: Cell-free kinase assay (ALPHA technology), p38alpha. In kind it is biochemical. Conditions: at 10 μM or 100 μM* ATP, recombinant human kinase. The procedure:
as §1, with “(PerkinElmer). […]” for “(PerkinElmer).”
as §3, §4, §5

Structures can show the parent of a compound that is named as a salt.

T1 sequence (P42336 whole entry, the tested form may be a part): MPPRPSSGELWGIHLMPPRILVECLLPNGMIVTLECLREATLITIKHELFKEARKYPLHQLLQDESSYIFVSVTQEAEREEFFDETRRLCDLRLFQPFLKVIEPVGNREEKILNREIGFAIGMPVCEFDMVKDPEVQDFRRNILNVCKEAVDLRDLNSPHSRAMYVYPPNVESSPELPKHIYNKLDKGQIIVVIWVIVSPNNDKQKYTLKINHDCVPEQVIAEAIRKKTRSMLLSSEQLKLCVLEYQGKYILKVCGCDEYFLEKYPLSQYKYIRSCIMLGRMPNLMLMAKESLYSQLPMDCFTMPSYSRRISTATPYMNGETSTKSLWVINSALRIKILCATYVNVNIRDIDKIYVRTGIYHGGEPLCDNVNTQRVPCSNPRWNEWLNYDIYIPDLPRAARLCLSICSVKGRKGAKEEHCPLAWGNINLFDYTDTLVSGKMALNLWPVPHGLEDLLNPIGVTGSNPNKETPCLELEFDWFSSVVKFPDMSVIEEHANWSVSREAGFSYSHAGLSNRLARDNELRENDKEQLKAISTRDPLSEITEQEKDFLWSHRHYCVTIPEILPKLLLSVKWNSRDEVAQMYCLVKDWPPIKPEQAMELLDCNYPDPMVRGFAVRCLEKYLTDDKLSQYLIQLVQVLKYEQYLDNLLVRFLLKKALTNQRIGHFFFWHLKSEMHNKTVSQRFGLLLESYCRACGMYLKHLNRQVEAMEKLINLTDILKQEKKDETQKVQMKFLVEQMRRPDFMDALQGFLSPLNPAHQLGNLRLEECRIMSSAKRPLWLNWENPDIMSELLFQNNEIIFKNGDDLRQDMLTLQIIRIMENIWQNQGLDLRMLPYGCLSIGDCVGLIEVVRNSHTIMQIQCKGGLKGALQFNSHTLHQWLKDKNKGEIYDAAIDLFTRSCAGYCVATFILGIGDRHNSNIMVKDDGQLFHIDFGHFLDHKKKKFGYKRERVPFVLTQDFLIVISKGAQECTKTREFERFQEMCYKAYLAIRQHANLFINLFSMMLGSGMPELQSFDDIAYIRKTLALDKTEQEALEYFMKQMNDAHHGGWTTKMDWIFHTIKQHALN
T1 sequence (P27986 whole entry partner, the tested form may be a part): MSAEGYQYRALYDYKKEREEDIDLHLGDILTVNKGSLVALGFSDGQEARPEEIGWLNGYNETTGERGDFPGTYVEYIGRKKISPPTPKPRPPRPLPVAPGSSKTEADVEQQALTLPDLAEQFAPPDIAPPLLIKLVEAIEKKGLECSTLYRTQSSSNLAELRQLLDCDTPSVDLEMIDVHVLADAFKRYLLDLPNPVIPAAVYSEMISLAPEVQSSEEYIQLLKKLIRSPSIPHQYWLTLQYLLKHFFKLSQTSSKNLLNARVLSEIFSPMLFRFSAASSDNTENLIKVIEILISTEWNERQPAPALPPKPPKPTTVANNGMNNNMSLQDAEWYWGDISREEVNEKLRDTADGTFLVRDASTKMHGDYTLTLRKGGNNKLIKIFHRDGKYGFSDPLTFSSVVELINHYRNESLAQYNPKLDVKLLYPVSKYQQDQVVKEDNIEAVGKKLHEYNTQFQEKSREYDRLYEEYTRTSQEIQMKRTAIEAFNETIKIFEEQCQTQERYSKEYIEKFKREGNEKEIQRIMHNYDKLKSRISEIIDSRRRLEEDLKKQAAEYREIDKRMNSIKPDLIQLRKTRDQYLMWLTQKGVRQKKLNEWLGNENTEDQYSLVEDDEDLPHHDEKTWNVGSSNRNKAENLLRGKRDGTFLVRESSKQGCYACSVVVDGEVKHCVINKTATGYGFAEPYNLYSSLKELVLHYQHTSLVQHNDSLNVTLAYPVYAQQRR
T2 sequence (P63085 whole entry, the tested form may be a part): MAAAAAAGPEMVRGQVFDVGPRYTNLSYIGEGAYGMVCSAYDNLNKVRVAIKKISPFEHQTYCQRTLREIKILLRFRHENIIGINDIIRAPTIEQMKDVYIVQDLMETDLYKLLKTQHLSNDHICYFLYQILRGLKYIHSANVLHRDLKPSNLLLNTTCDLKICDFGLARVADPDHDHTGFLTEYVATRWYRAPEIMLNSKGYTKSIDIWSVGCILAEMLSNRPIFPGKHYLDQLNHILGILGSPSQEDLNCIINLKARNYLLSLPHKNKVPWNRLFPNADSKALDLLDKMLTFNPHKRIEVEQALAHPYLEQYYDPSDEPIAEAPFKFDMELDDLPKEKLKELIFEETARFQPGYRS

One may read the melting point as the temperature of the solid-liquid transition. `CCNC(=O)Nc1ccc2ncc(-c3cccc([Si](C)(C)C)c3)nc2n1` returned a melting point of 224 to 228 °C.

In turn, `COCCOC(=O)Oc1ccc(-c2cnc3ccc(NC(=O)NCCCCO)nc3n2)cc1` (as salt: hydrochloride) [Compound 58, 4-{6-[3-(4-Hydroxybutyl)urea]pyrido[2,3-b]pyrazin-3-yl}phenyl 2-methoxyethyl carbonate hydrochloride] registered a melting point of 165 to 168 °C.

On to `CCNC(=O)Nc1ccc2ncc(C#Cc3ccccc3)nc2n1` [Compound 1, 1-Ethyl-3-(3-phenylethynylpyrido[2,3-b]pyrazin-6-yl)urea], for which the melting point is 236 to 238 °C (dec.).

On to `CCNC(=O)Nc1ccc2ncc(C#Cc3ccsc3)nc2n1` [Compound 2, 1-Ethyl-3-(3-thiophen-3-ylethynylpyrido[2,3-b]pyrazin-6-yl)urea], for which the melting point is 239 to 242 °C (dec.).

As to `CCNC(=O)Nc1ccc2ncc(C#CC3CC3)nc2n1` [Compound 3, 1-(3-Cyclopropylethynylpyrido[2,3-b]pyrazin-6-yl)-3-ethylurea], the melting point was 227 to 228 °C (dec.).

In the case of `CCNC(=O)Nc1ccc2ncc(/C=C/C3CCCCC3)nc2n1` [Compound 5, 1-[3-((E)-2-Cyclohexylvinyl)pyrido[2,3-b]pyrazin-6-yl]-3-ethylurea], the melting point is 202 to 204 °C (dec.).

As usually defined, the IC50 is the point on the concentration scale where inhibition reaches its midpoint. On to `CCNC(=O)Nc1ccc2ncc(/C=C/COC)nc2n1` [Compound 6, 1-Ethyl-3-[3-((E)-3-methoxypropenyl)pyrido[2,3-b]pyrazin-6-yl]urea], for which the results for the IC50 on PI3Kalpha and at Erk2 were 21.3 µM and 2.4 µM, respectively.

Take `CONC(=O)Nc1ccc2ncc(-c3ccccc3)nc2n1` [Compound 7, 1-Methoxy-3-(3-phenylpyrido[2,3-b]pyrazin-6-yl)urea]: the IC50 is 11.4 µM in the data set with Jnk1 + Jnk2 and over 100 µM at p38alpha.

Take `C=CCONC(=O)Nc1ccc2ncc(-c3ccccc3)nc2n1` [Compound 8, 1-Allyloxy-3-(3-phenylpyrido[2,3-b]pyrazin-6-yl)urea]: the IC50 is 19.4 µM with Jnk1 + Jnk2 and over 100 µM on p38alpha.

As to `CCNC(=O)Nc1ccc2ncc(-c3ccc(OC(=O)Oc4ccccc4)cc3)nc2n1` [Compound 11, 4-[6-(3-Ethylurea)pyrido[2,3-b]pyrazin-3-yl]phenyl phenyl carbonate], the IC50 with Jnk1 + Jnk2 is over 100 µM.

In the case of `CCNC(=O)Nc1ccc2ncc(-c3ccc(OC(=O)N(CC)CC)cc3)nc2n1` [Compound 12, 4-[6-(3-Ethylurea)pyrido[2,3-b]pyrazin-3-yl]phenyl diethylcarbamate], the IC50 came out at 0.637 µM in the data set on Jnk1 + Jnk2 and 8.8 µM at p38alpha.

`CCNC(=O)Nc1ccc2ncc(-c3ccc(OC(=O)/C=C/c4ccccc4)cc3)nc2n1` [Compound 13, 4-[6-(3-Ethylurea)pyrido[2,3-b]pyrazin-3-yl]phenyl (E)-3-phenylacrylate]: the melting point fell in the range of 236 to 238 °C. In the data set on Jnk1 + Jnk2, the IC50 was over 100 µM. Besides, at Erk2, the IC50 came out at 0.64 µM.

On to `CCNC(=O)Nc1ccc2ncc(-c3ccc(OC(=O)N(C)C)cc3)nc2n1` [Compound 19, 4-[6-(3-Ethylurea)pyrido[2,3-b]pyrazin-3-yl]phenyl dimethylcarbamate], for which the melting point is > 230 °C (dec.). Besides, the IC50 with Jnk1 + Jnk2 was 10.1 µM. In addition, on PI3Kalpha, the IC50 was found to be 2.3 µM. Moreover, the IC50 on Erk2 is 3.9 µM.

`CCNC(=O)Nc1ccc2ncc(-c3ccc(NC(=O)OC(C)(C)C)cc3)nc2n1` [Compound 21, tert-Butyl {4-[6-(3-ethylurea)pyrido[2,3-b]pyrazin-3-yl]phenyl}carbamate]: the melting point is 281 to 283 °C. Besides, the IC50 in the data set with Jnk1 + Jnk2 is over 31.6 µM. In addition, the IC50 at PI3Kalpha stood at 1.2 µM. Also, the IC50 at Erk2 was over 100 µM.

Regarding `CCNC(=O)Nc1ccc2ncc(-c3ccc(NC(=O)OCCOC)cc3)nc2n1` [Compound 22, 2-Methoxyethyl {4-[6-(3-ethylurea)pyrido[2,3-b]pyrazin-3-yl]phenyl}carbamate], the melting point lay within 249 to 251 °C. The IC50 in the data set on Jnk1 + Jnk2 is over 31.6 µM. Further, the IC50 at PI3Kalpha is 1.2 µM. In addition, the IC50 on Erk2 was over 100 µM.

Turning to `CCNC(=O)Nc1ccc(-c2cnc3ccc(NC(=O)NCC)nc3n2)cn1` [Compound 25, 1-Ethyl-3-{3-[6-(3-ethylurea)pyridin-3-yl]pyrido[2,3-b]pyrazin-6-yl}urea], the figures for the IC50 with Jnk1 + Jnk2, on PI3Kalpha and at Erk2 were 24.2 µM, 4.4 µM and 3.4 µM, respectively.

As for `CCNC(=O)Nc1ccc2ncc(CCc3ccc(F)cc3)nc2n1` [Compound 26, 1-Ethyl-3-{3-[2-(4-fluorophenyl)ethyl]pyrido[2,3-b]pyrazin-6-yl}urea], the melting point lay in the range of 207 to 209 °C.

The molecule `CCNC(=O)Nc1ccc2ncc(/C=C/c3ccc(F)cc3)nc2n1` [Compound 27, 1-Ethyl-3-{3-[(E)-2-(4-fluorophenyl)vinyl]pyrido[2,3-b]pyrazin-6-yl}urea] gave a melting point of 217 to 219 °C.

For the molecule `CCNC(=O)Nc1ccc2ncc(-c3ccc(NC(=O)COCCOC)cc3)nc2n1` [Compound 30, N-{4-[6-(3-Ethylurea)pyrido[2,3-b]pyrazin-3-yl]phenyl}-2-(2-methoxyethoxy)acetamide], the melting point lay within 212 to 215 °C. Also, in the data set on Jnk1 + Jnk2, the IC50 was determined as 13.8 µM. In addition, the IC50 on PI3Kalpha turned out to be 0.749 µM. For the same molecule, at Erk2, the IC50 is over 31.6 µM.

Take `CCOP(=O)(CCCCNC(=O)Nc1ccc2ncc(-c3ccc(O)c(OC)c3)nc2n1)OCC` [Compound 44, Diethyl (4-{3-[3-(4-hydroxy-3-methoxyphenyl)pyrido[2,3-b]pyrazin-6-yl]urea}butyl)phosphonate]: the IC50 in the data set on Jnk1 + Jnk2 was 8.4 µM; on PI3Kalpha, 10.7 µM; on Erk2, 2.8 µM.

Turning to `COc1cc(-c2cnc3ccc(NC(=O)NCCCCP(=O)(O)O)nc3n2)ccc1O` [Compound 45, (4-{3-[3-(4-Hydroxy-3-methoxyphenyl)pyrido[2,3-b]pyrazin-6-yl]urea}butyl)phosphonic acid], the figures for the IC50 with Jnk1 + Jnk2, on PI3Kalpha and at Erk2 were 0.974 µM, 12.5 µM and 0.243 µM, respectively.

`CCNC(=O)Nc1ccc2ncc(Nc3ccc(C4CCCCC4)cc3)nc2n1` [Compound 47, 1-[3-(4-Cyclohexylphenylamino)pyrido[2,3-b]pyrazin-6-yl]-3-ethylurea] registered a melting point of 246 to 248 °C.

Regarding `CCNC(=O)Nc1ccc2ncc(Nc3ccc(-c4ccsc4)cc3)nc2n1` [Compound 52, 1-Ethyl-3-[3-(4-thiophen-3-ylphenylamino)pyrido[2,3-b]pyrazin-6-yl]urea], the melting point is 264 to 267 °C.

For `CCNC(=O)Nc1ccc2ncc(Nc3ccc(NC(C)=O)cc3)nc2n1` [Compound 53, N-{4-[6-(3-Ethylurea)pyrido[2,3-b]pyrazin-3-ylamino]phenyl}acetamide], the IC50 in the data set on Jnk1 + Jnk2 was 20.4 µM; on PI3Kalpha, 0.677 µM; at Erk2, 16.5 µM.

As for `CCNC(=O)Nc1ccc2ncc(-c3ccc(OC(=O)OCCOC)cc3)nc2n1` [Compound 55, 4-[6-(3-Ethylurea)pyrido[2,3-b]pyrazin-3-yl]phenyl 2-methoxyethyl carbonate hydrochloride], the IC50 was determined as 2.9 µM in the data set with Jnk1 + Jnk2 (hydrochloride), 3.6 µM on PI3Kalpha (hydrochloride) and 0.812 µM on Erk2.

As for `COCCOC(=O)Oc1ccc(-c2cnc3ccc(NC(=O)NCCCCO)nc3n2)cc1` [Compound 58, 4-{6-[3-(4-Hydroxybutyl)urea]pyrido[2,3-b]pyrazin-3-yl}phenyl 2-methoxyethyl carbonate hydrochloride], the IC50 in the data set with Jnk1 + Jnk2 was 2.5 µM; on PI3Kalpha, 4.3 µM; at Erk2, 0.763 µM.
